In patent US20070166547A1, “Use of a layer consisting of hydrophobic linear, or two-dimensional polycyclic aromatics as a barrier layer or an encapsulation and electric components constructed with a layer of this type and comprising organic polymers” (priority 2003, published 2007):
Each block holds one compound with its values, some of them ahead of it.

Key:
[1] = Polarographic study of electrochemical reduction (electrochemical activity); assay type: physicochemical; details: for number of electrons participating in the reduction: calculated with the Geirovsky-Ilkovich equation; for i, mkA (polarographic wave current) / −E1/2, V (half-wave potential vs SCE): 37° C., forward trace, average for the group; for i, mkA (polarographic wave current): 9·10^−4 M; for half-wave potential more positive on reverse stroke than on forward stroke: reverse stroke vs forward stroke
Procedure: The study was carried out on a general-purpose polarograph PU-1 with a two-coordinate recorder of the “LKD” type using a three-electrode thermostatically controlled polarographic cell and mercury dripping electrode (MDE) with forced separation of the drop and a dropping period of 0.5 second. A platinum wire was used as an auxiliary electrode and a saturated calomel electrode (SCE) was used as a control electrode.
2.0% solutions of sodium chloride having pH 7.0, 7.2, 7.4, 7.6 were used as a background; the pH values of the background solution were corrected by a solution of sodium hydroxide. The polarographic cell was filled with 5.0 ml of the background solution and for 5 minutes was purged with nitrogen for removing the dissolved oxygen. Then 0.5 ml of solution of the studied substance was added to the background solution, and the polarogram was recorded as a polarographic wave. The concentration of the compounds in the polarographic cell was 9·10^−4 M.
The pH was measured on the pH-meter with an accuracy of ±0.05 pH units. The polarographic measurements were carried out at a temperature of 37° C. The recording of polarograms of the investigated materials was effected under conditions of DC current at a scanning rate of the potential 10.0 mV/s with a active scanning stroke from a potential 0 to −0.5 V and sweep retrace from a −0.5 V to 0. The electric-current sensitivity was 5.0 mkA. The scale by the coordinate of the potentials was 50.0 mV/cm. The values of potentials of the half-wave E1/2 of the investigated materials are given with respect to the SCE potential.
The polarogram parameters such as a limiting current ilim and E1/2 were determined by the graphic method. The number of electrons participating in the reaction was calculated on the basis of the analysis of the polarographic wave using the Geirovsky-Ilkovich equation.

[2] = Chronic toxicity, rectal suppositories: indexes of peripheral blood; details: male rats; for Basophiles / Juveniles: 1 month/2 months (one value given)
Procedure: The experiments were conducted on inbred rats. The experimental animals were selected in groups by a method of random sampling taking into account the body mass as a determining index; 24 males or 24 females for one preparation from compounds 2, 15, 23, 34, 37 investigated in one dose.
Two doses of preparations used in the experiments: 50 mg/kg and 500 mg/kg. Before the administration, the suppositories were softened by heating in a glass water bath at a temperature of 38-39° C., the soft mass was collected in tuberculin syringe in a volume of 1 ml, a needle with oliva was attached to the syringe, and the preparatory mass was introduced into the rectum of the animal for a depth of 1.5-2.0 cm. The animals of the control group were administered with sterile medical liquid paraffin in a volume corresponding to the volume of the investigated suppository. A complete course of administration of drugs to the animals was two months. A complex of laboratory diagnostic investigations was carried out one month after the beginning of the administration of the preparation to the animal—in a middle of the course (8 animals), two months after ending the course (8 animals) and three months after ending the recovery period of one month (8 animals). The mass of the body of the rats in the first month of administration of the preparation was determined weekly, and then once in two weeks. On the basis of the dynamics of an index of the mass of the animal body, the volume of preparation being administered was corrected taking into account the test dose.

[3] = suppositories 50 mg/kg, 1 month
[4] = suppositories 50 mg/kg, 2 months
[5] = suppositories 500 mg/kg, 1 month
[6] = suppositories 500 mg/kg, 2 months

Compound: COP(=O)(OC)C(C)(C)CC(C)=O [dimephosphon, dimethyl ester of 1,1-dimethyl-3-oxybuthyl of phosphonic acid, reference compound]
number of electrons participating in the reduction [1]: 1.6 | i, mkA (polarographic wave current) ([1]; pH 7.0): 0.10 ± 0.03 mkA | −E1/2, V (half-wave potential vs SCE) ([1]; pH 7.0): 0.175 ± 0.01 V | i, mkA (polarographic wave current) ([1]; pH 7.2): 0.12 ± 0.03 mkA | −E1/2, V (half-wave potential vs SCE) ([1]; pH 7.2): 0.17 ± 0.02 V | i, mkA (polarographic wave current) ([1]; pH 7.4): 0.11 ± 0.02 mkA | −E1/2, V (half-wave potential vs SCE) ([1]; pH 7.4): 0.18 ± 0.01 V | i, mkA (polarographic wave current) ([1]; pH 7.6): 0.11 ± 0.02 mkA | −E1/2, V (half-wave potential vs SCE) ([1]; pH 7.6): 0.18 ± 0.01 V | half-wave potential more positive on reverse stroke than on forward stroke [1]: 50.0 mV

Compound: O=C([O-])c1ncnc2c(=O)n([C@@H]3O[C@H](CO)[C@@H](O)[C@H]3O)[nH]c(=O)c12.[Na+] [Compound 34, sodium salt of 4-carboxy-7-(β-D-ribofuranosile)pyrimido[4,5-D]-6H-pyridazine-5,8-dione]
Average volume of erythrocytes [2, 3]: 81.6 ± 1.9 Mkm^3 | Coagulation, time [2, 3]: 148 ± 16 s | Eosinophiles [2, 3]: 3.5 ± 1.0% | Erythrocytes [2, 3]: 5.6 ± 0.1 mln/mm^3 | Haematocrite [2, 3]: 46.9 ± 1.1% | Hemoglobin [2, 3]: 10.6 ± 0.1 mmol/L | Leukocyte [2, 3]: 15.9 ± 1.3 thousand/mm^3 | REE [2, 3]: 1.8 ± 0.5 mm/h | Reticulocytes [2, 3]: 2.7 ± 0.1% | Stab neutrophil [2, 3]: 1.0 ± 0.4% | Thrombocytes [2, 3]: 670 ± 23 | Basophiles ([2]; suppositories 50 mg/kg): 0% | Juveniles ([2]; suppositories 50 mg/kg): 0% | Average volume of erythrocytes [2, 4]: 76.7 ± 1.9 Mkm^3 | Coagulation, time [2, 4]: 321 ± 10 s | Eosinophiles [2, 4]: 4.1 ± 0.4% | Erythrocytes [2, 4]: 6.1 ± 0.2 mln/mm^3 | Haematocrite [2, 4]: 47.5 ± 1.2% | Hemoglobin [2, 4]: 11.1 ± 0.2 mmol/L | Leukocyte [2, 4]: 17.8 ± 1.4 thousand/mm^3 | REE [2, 4]: 1.7 ± 0.3 mm/h | Reticulocytes [2, 4]: 2.9 ± 0.2% | Stab neutrophil [2, 4]: 1.8 ± 0.5% | Thrombocytes [2, 4]: 610 ± 15 | Average volume of erythrocytes [2, 5]: 84.1 ± 1.3 Mkm^3 | Eosinophiles [2, 5]: 3.0 ± 0.9% | Erythrocytes [2, 5]: 5.6 ± 0.2 mln/mm^3 | Haematocrite [2, 5]: 48.1 ± 1.5% | Hemoglobin [2, 5]: 10.6 ± 0.3 mmol/L | Leukocyte [2, 5]: 16.9 ± 1.0 thousand/mm^3 | REE [2, 5]: 2.0 ± 0.4 mm/h | Reticulocytes [2, 5]: 3.2 ± 0.2% | Stab neutrophil [2, 5]: 0.9 ± 0.2% | Thrombocytes [2, 5]: 682 ± 24 | Basophiles ([2]; suppositories 500 mg/kg): 0% | Juveniles ([2]; suppositories 500 mg/kg): 0% | Average volume of erythrocytes [2, 6]: 83.8 ± 1.5 Mkm^3 | Coagulation, time [2, 6]: 312 ± 9 s | Eosinophiles [2, 6]: 3.9 ± 1.4% | Erythrocytes [2, 6]: 6.6 ± 0.1 mln/mm^3 | Haematocrite [2, 6]: 53.1 ± 1.6% | Hemoglobin [2, 6]: 12.4 ± 0.4 mmol/L | Leukocyte [2, 6]: 22.1 ± 1.1 thousand/mm^3 | REE [2, 6]: 1.8 ± 0.2 mm/h | Reticulocytes [2, 6]: 3.5 ± 0.3% | Stab neutrophil [2, 6]: 1.4 ± 0.3% | Thrombocytes [2, 6]: 631 ± 26

Compound: O=c1[nH][nH]c(=O)c2nccnc12.[Na] [Compound 26, sodium salt of pyrazine[2,3-d]-6H-pyridazine-5,8-dione]
half-wave potential more positive on reverse stroke than on forward stroke [1]: 27.0 mV

Further lines, results first:

number of electrons participating in the reduction [1]: 3.72 | i, mkA (polarographic wave current) ([1]; pH 7.0): 0.32 ± 0.03 mkA | −E1/2, V (half-wave potential vs SCE) ([1]; pH 7.0): 0.16 ± 0.02 V | i, mkA (polarographic wave current) ([1]; pH 7.2): 0.33 ± 0.04 mkA | −E1/2, V (half-wave potential vs SCE) ([1]; pH 7.2): 0.19 ± 0.02 V | i, mkA (polarographic wave current) ([1]; pH 7.4): 0.34 ± 0.03 mkA | −E1/2, V (half-wave potential vs SCE) ([1]; pH 7.4): 0.175 ± 0.01 V | i, mkA (polarographic wave current) ([1]; pH 7.6): 0.34 ± 0.02 mkA | −E1/2, V (half-wave potential vs SCE) ([1]; pH 7.6): 0.16 ± 0.015 V | half-wave potential more positive on reverse stroke than on forward stroke [1]: 20.0 mV
Compound: potassium salt of 3-bromine-pyrazine[2,3-Cl]-6H-pyridazine-5,8-dione [Compound 27]

number of electrons participating in the reduction [1]: 3.5 | i, mkA (polarographic wave current) ([1]; pH 7.0): 0.30 ± 0.05 mkA | −E1/2, V (half-wave potential vs SCE) ([1]; pH 7.0): 0.08 ± 0.02 V | i, mkA (polarographic wave current) ([1]; pH 7.2): 0.26 ± 0.02 mkA | i, mkA (polarographic wave current) ([1]; pH 7.4): 0.30 ± 0.03 mkA | −E1/2, V (half-wave potential vs SCE) ([1]; pH 7.4): 0.085 ± 0.02 V | i, mkA (polarographic wave current) ([1]; pH 7.6): 0.30 ± 0.02 mkA | −E1/2, V (half-wave potential vs SCE) ([1]; pH 7.6): 0.09 ± 0.02 V | half-wave potential more positive on reverse stroke than on forward stroke [1]: 27.0 mV
Compound: O=c1[nH]n([C@@H]2O[C@H](CO)[C@@H](O)[C@H]2O)c(=O)c2ncnc(O)c12.[Na] [Compound 33, sodium salt of 4-hydroxy-7-(β-D-ribofuranosile)pyrimido[4,5-d]-6H-pyridazine-5,8-dione]

number of electrons participating in the reduction [1]: 3.72 | i, mkA (polarographic wave current) ([1]; pH 7.0): 0.26 ± 0.04 mkA | −E1/2, V (half-wave potential vs SCE) ([1]; pH 7.0): 0.11 ± 0.02 V | i, mkA (polarographic wave current) ([1]; pH 7.2): 0.31 ± 0.02 mkA | −E1/2, V (half-wave potential vs SCE) ([1]; pH 7.2): 0.11 ± 0.03 V | i, mkA (polarographic wave current) ([1]; pH 7.4): 0.27 ± 0.03 mkA | −E1/2, V (half-wave potential vs SCE) ([1]; pH 7.4): 0.105 ± 0.01 V | i, mkA (polarographic wave current) ([1]; pH 7.6): 0.30 ± 0.01 mkA | −E1/2, V (half-wave potential vs SCE) ([1]; pH 7.6): 0.105 ± 0.02 V | half-wave potential more positive on reverse stroke than on forward stroke [1]: 25.0 mV
Compound: disodium salt of 3-Kap ? OKC ? -7-(β-D-ribofuranosile)pyrido[2,3-d]-6H-pyridazine-5,8-dione [Compound 5]

number of electrons participating in the reduction [1]: 3.72 | i, mkA (polarographic wave current) ([1]; pH 7.0): 0.26 ± 0.04 mkA | −E1/2, V (half-wave potential vs SCE) ([1]; pH 7.0): 0.11 ± 0.02 V | i, mkA (polarographic wave current) ([1]; pH 7.2): 0.31 ± 0.02 mkA | −E1/2, V (half-wave potential vs SCE) ([1]; pH 7.2): 0.11 ± 0.03 V | i, mkA (polarographic wave current) ([1]; pH 7.4): 0.27 ± 0.03 mkA | −E1/2, V (half-wave potential vs SCE) ([1]; pH 7.4): 0.105 ± 0.01 V | i, mkA (polarographic wave current) ([1]; pH 7.6): 0.30 ± 0.01 mkA | −E1/2, V (half-wave potential vs SCE) ([1]; pH 7.6): 0.105 ± 0.02 V | half-wave potential more positive on reverse stroke than on forward stroke [1]: 25.0 mV
Compound: sodium salt of 7-(β-O-ribofuranosile)pyrido[2,3-1]-6H-pyridazine-5,8-dione sodium salt [Compound 1]
